# According to article PMC5408667, “A structural and functional analogue of a Bowman–Birk-type protease inhibitor from Odorrana schmackeri” (Bioscience Reports, 2017):
# Entries after “also recorded” stand apart in the source; their conditions may differ. Bridge positions count the residues as written; N and C are the ends. Peptide text beside a SMILES is read from it.
# T1: Trypsin (Bos taurus, UniProt P00760)
# T1 construct: gene PRSS1
# T1 sequence (P00760 24-246): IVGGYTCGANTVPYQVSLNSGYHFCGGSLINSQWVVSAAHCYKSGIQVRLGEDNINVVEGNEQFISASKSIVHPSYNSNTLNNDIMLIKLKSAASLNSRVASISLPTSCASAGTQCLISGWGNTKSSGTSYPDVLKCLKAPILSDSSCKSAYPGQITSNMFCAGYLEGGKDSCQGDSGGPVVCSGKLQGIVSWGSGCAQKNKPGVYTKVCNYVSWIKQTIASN
# Tests used:
# Tryptase = target: T2, Tryptase (Homo sapiens, UniProt Q15661); test: Tryptase inhibition assay; assay type: biochemical
# T2 construct: purchased Calbiochem, U.K
# T2 sequence (Q15661 31-275): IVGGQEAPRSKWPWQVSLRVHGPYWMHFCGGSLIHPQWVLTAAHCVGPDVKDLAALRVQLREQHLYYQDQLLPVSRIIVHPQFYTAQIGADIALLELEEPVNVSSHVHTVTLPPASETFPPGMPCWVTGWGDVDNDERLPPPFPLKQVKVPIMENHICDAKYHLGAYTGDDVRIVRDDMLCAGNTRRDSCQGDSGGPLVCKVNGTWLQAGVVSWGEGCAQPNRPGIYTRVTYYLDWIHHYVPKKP
# Description: Tryptase (2.5 μl from 1 mg/ml stock solution, Calbiochem, U.K.), was added to the wells of a microtitre plate containing substrate (Boc-Phe-Ser-Arg-NHMec, obtained from Bachem, U.K.) (50 μM) and synthetic peptide replicates (0.5, 1, 2 and 4 mM) in tryptase assay buffer, pH 7.6, containing 0.05 M Tris, 0.15 M NaCl and 0.2% (w/v) PEG 6000 (final volume 210 μl).
# For modest binding inhibition, we first calculated the IC50 from a plot of % inhibition against inhibitor concentration [I]. The data points were fitted to the resulting curve, by non-linear regression analysis, using GraphPad Prism. The IC50 values were then converted into Ki values using the eqn (3), to account for the presence of competing substrate [15]. (3) Ki = IC50/{1 + ([S]/KM)}
# In inhibition studies with both these proteases, their respective substrates were used at a fixed concentration [S] of 50 μM. […] The determination of these KM values was carried out using identical buffer and temperature conditions (37°C) as those employed in the inhibition studies with the two synthetic amphibian peptides.
# Trypsin = target: T1, Trypsin; test: Trypsin inhibition assay (synthetic peptides, Morison plot); assay type: biochemical; settings: substrate Phe-Pro-Arg-NHMec 50 μM, 37°C
# Description: (§1) Trypsin (10 μl from 0.1 μM stock solution in 1 mM HCl), was added to the wells of a microtitre plate containing substrate (Phe-Pro-Arg-NHMec) (50 μM) and synthetic peptide replicates (0.1–100 μM) in 10 mM phosphate buffer, pH 7.4, containing 2.7 mM KCl and 137 mM NaCl (final volume 210 μl).
# (§2) Each determination was carried out in triplicate. The rate of hydrolysis of substrate was monitored continuously, at 37°C, by measuring the rate of increase in fluorescence due to production of 7-amino-4-methylcoumarin (NH2Mec) at 460 nm (excitation 360 nm) in a CytoFluor® multi-well plate reader Series 4000 spectrofluorimeter.
# For potent, slow, tight-binding inhibition, the Morison equation was used to determine the inhibition constant Ki(app) by fitting the kinetic data to the equation below: (1) Vi/V0 = 1 − {[E]0 + [I] + Ki(app) − ([E]0 + [I] + Ki(app))^2−4 × [E]0 × [I]/2 × [E]0} […]
# This kinetic treatment was used for the inhibition of trypsin by OSTI. Since the inhibition studies were performed in the presence of competing substrate, the true Ki value was calculated from Ki(app) using eqn (2). For trypsin, a fixed substrate concentration [S] of 50 μM was used, for these inhibition studies and in a separate experiment (performed using identical buffer and temperature conditions),a value of 73.29 μM was determined for the Michaelis constant KM, for substrate hydrolysis in the absence of OSTI. […]
# [1] = Determination of peptide secondary structures using CD analysis; assay type: physicochemical
# Description: CD measurements were performed with a JASCO J-815 CD spectrometer (Jasco, Essex, U.K.) at room temperature (20–25°C). Each peptide was dissolved in (a) water and (b) 50% (v/v) trifluoroethanol (TFE)-water to reach a concentration of 50 μM before being transferred and measured in a 0.1 cm high precision quartz cell (Hellma Analytics, Essex, U.K.). The wavelength used in CD spectrometer was from 190 to 240 nm with a scanning speed of 200 nm/min, bandwidth and data pitch are 1 and 0.5 nm respectively. CD data are expressed as the mean molar ellipticity [θ] in deg.cm^2.dmol^−1 in corresponding wavelength (nm), which is calculated using the measured ellipticity (θ, in medg) with the equation [θ] = θ/(10 × c × l), ‘c’ refers to the molar concentration of the sample (mol/l) and the term ‘l’ is the cuvette path length (cm). DichroWeb webserver (http://dichroweb.cryst.bbk.ac.uk/html/home.shtml) was used to estimate the α-helix and β-sheet content.
# Figure 8 Circular dichroism spectra of OSTI and [Phe^9]-OSTI The CD spectra recorded for OSTI and [Phe^9]-OSTI (100 μM) in (A) 10 mM ammonium acetate water solution and (B) 50% 2,2,2-TFE/10 mM ammonium acetate water solution.
# Chymotrypsin = Chymotrypsin (Bos taurus, UniProt P00766); test: Chymotrypsin inhibition assay; assay type: biochemical
# Description: as §1, with “Chymotrypsin” for “Trypsin”, “HCl)” for “HCl),”, “(Succinyl–Ala–Ala–Pro–Phe–NHMec, obtained from Bachem, U.K.)” for “(Phe-Pro-Arg-NHMec)”
# as §2
# For modest binding inhibition, we first calculated the IC50 from a plot of % inhibition against inhibitor concentration [I]. The data points were fitted to the resulting curve, by non-linear regression analysis, using GraphPad Prism. The IC50 values were then converted into Ki values using the eqn (3), to account for the presence of competing substrate. (3) Ki = IC50/{1 + ([S]/KM)}
# This kinetic treatment was applied to the inhibition of tryptase by OSTI and chymotrypsin by [Phe^9]-OSTI. […] The Michaelis constant KM for tryptase against Boc-Phe-Ser-Arg-NHMec was determined to be 227.2 μM, while KM for chymotrypsin against Succinyl–Ala–Ala–Pro–Phe–NHMec was determined to be 38.4 μM. […]
# chymase = settings: Lineweaver–Burk double-reciprocal plot; ref [24]; cited from earlier work
# Description: Tryptase and chymase are atypical serine proteases that are synthesized, stored and released by mast cells. Due to their close involvement in the pathogenesis of inflammation and some other diseases, there have been reports of BBIs possibly having utility in the treatment of such conditions.
# [2] = 50% TFE-water, CD 190–240 nm, room temperature (20–25°C), DichroWeb
# [3] = aqueous solution, CD 190–240 nm, room temperature (20–25°C), DichroWeb
molecule,measurement,setting,value
"CC[C@H](C)[C@@H]1NC(=O)[C@H](CO)NC(=O)[C@H](CCCCN)NC(=O)[C@H]([C@@H](C)O)NC(=O)[C@H](Cc2c[nH]c3ccccc23)NC(=O)[C@@H](NC(=O)CNC(=O)[C@H](CCCCN)NC(=O)[C@H](CC(C)C)NC(=O)[C@H](C)NC(=O)[C@H](C)N)CSSC[C@@H](C(=O)N[C@@H](Cc2ccccc2)C(N)=O)NC(=O)[C@@H]2CCCN2C(=O)[C@H](CCCCN)NC(=O)[C@@H]2CCCN2C(=O)[C@@H]2CCCN2C1=O [OSTI, AALKGCWTKSIPPKPCF-amide] (H-AALKGCWTKSIPPKPCF-NH2; disulfide 6-16; N-terminus assumed)",tryptase inhibition (in words),"Tryptase; progress curves, OSTI 0–17.4 μM",moderate inhibitor
same,inhibition kinetics / mechanism from progress curves,Trypsin,"reversible, slow-binding kinetics; also recorded: two-step complexing mechanism"
same,β-sheet secondary structure (in words),"[1]; 50% TFE-water, CD",low percentage of β-sheet secondary structure
same,random coil content,[1]; [2],47%
same,α-helix content,[1]; [2],8%
same,β-sheet content,[1]; [2],45%
same,canonical β-turn motif,"[1]; aqueous solution, CD",did not display canonical β-turn motif
same,random coil content,[1]; [3],42%
same,β-sheet content,[1]; [3],51%
"CC[C@H](C)[C@@H]1NC(=O)[C@H](CO)NC(=O)[C@H](Cc2ccccc2)NC(=O)[C@H]([C@@H](C)O)NC(=O)[C@H](Cc2c[nH]c3ccccc23)NC(=O)[C@@H](NC(=O)CNC(=O)[C@H](CCCCN)NC(=O)[C@H](CC(C)C)NC(=O)[C@H](C)NC(=O)[C@H](C)N)CSSC[C@@H](C(=O)N[C@@H](Cc2ccccc2)C(N)=O)NC(=O)[C@@H]2CCCN2C(=O)[C@H](CCCCN)NC(=O)[C@@H]2CCCN2C(=O)[C@@H]2CCCN2C1=O [[Phe^9]-OSTI, AALKGCWTFSIPPKPCF-amide] (H-AALKGCWTFSIPPKPCF-NH2; disulfide 6-16)",Ki,"Chymotrypsin; substrate Succinyl–Ala–Ala–Pro–Phe–NHMec 50 μM, 10 mM phosphate buffer pH 7.4, 2.7 mM KCl, 137 mM NaCl, 37°C, from IC50 with KM 38.4 μM, mean ± S.E.M. of three independent experiments, each performed in duplicate",1000 ± 100 nM
"Boc-Phe-Ser-Arg-NHMec [fluorogenic tryptase substrate, reference compound]",Km,"Tryptase; substrate of tryptase, identical buffer and temperature conditions (37°C), read-out: Michaelis constant KM, tryptase",227 µM
"Succinyl–Ala–Ala–Pro–Phe–NHMec [fluorogenic chymotrypsin substrate, reference compound]",Km,"Chymotrypsin; substrate of chymotrypsin, identical buffer and temperature conditions (37°C), read-out: Michaelis constant KM, chymotrypsin",38.4 µM
"soybean BBI: soybean Bowman–Birk protease inhibitor, two-headed protease inhibitor (protein, UniProt P01055 40-110, looked up) Bowman-Birk type proteinase …: DDESSKPCCDQCACTKSNPPQCRCSDMRLNSCHSACKSCICALSYPAQCFCVDITDFCYEPCKPSEDDKEN",mechanism of chymase inhibition,chymase,non-competitive mechanism
